Assays:
[1] = target: T1, tumor necrosis factor receptor 2 (TNFR, P20333) (Homo sapiens, UniProt P20333); test: cell-based ligand-lactamase fusion binding to cells expressing TNF receptor (CCF2 fluorescence); settings: for fluorescence readout, multiplexed pool of 12 receptors: TNFR in pool of 12 receptors; for fluorescence readout, multiplexed pool of 96 receptors: TNFR in pool of 96 receptors; for fluorescence readout, one on one receptor-ligand binding / fluorescence readout, multiplexed pool of 12 ligands / fluorescence readout, multiplexed pool of 96 ligands: TNFR; for fluorescence readout, one on one receptor-ligand binding: one to one, beta-lactamase reporter, CCF2 substrate
T1 construct: V5-His (from vector pcDNA3.1D/V5-His-TOPO); expressed in transfected cells
T1 sequence (P20333 23-461): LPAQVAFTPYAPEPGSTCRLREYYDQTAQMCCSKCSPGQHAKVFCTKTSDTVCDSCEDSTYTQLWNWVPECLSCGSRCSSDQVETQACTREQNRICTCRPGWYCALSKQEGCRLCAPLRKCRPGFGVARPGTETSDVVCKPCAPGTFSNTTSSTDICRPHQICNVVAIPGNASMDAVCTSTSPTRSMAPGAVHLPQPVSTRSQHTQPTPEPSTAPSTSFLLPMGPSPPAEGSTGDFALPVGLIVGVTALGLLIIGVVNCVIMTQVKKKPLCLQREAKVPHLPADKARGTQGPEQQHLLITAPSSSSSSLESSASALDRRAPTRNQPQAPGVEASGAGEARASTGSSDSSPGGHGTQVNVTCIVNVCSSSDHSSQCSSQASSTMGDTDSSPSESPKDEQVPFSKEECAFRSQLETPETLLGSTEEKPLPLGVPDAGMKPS
Description: (§1) Cells transfected with plasmids expressing a ligand lactamase fusion and cells transiently or stably expressing receptor were independently cultured in multiple well (e.g., 96-well, 384-well, or 1536-well) plates. After growth, the culture medium of the cells transiently or stably expressing receptor was removed, and the culture medium of the cells expressing ligand lactamase fusion was added to the wells of cells stably expressing receptor. After the mixture was incubated at 4° C. for 1 hour, the medium was removed. The cells stably expressing receptor were washed three times with PBS containing 1% FBS (Invitrogen), and a lactamase substrate, such as CCF2 in […], was added to the washed cells in each well, and incubated. The fluorescence emission at 447 nm with excitation at 409 nm was measured using the Spectra Max Gemim (Molecular Devices) at different time points. The increase of fluorescence emission at 447 nm represented the lactamase activity of ligand fusion bound on the cell surface.
The TNF receptor and TNF, EPO, and IL-8 ligand lactamase fusion proteins were expressed as described above. The TNF, EPO, and IL-8 ligand lactamase fusions were contacted with the TNF receptor in duplicate experiments.
(§2) EPO, IL-8, and TNF receptors and ligands were expressed as described above. Known ligands, including the TNF ligand, were grouped to form a multiplexed pool of 12 ligands and a multiplexed pool of 96 ligands. Compared to the fluorescence readout for one on one receptor-ligand binding for TNF/TNFR (32899 arbitrary units), the fluorescence readout (and thus, binding) was less for TNF/EPOR (−1113.5) and TNF/IL-8R (−814.5).
(§3) EPO, IL-8, and TNF receptors and ligands were expressed as described above. Known receptors, including the TNF receptor, were grouped to form a multiplexed pool of 12 receptors and a multiplexed pool of 96 receptors. Compared to the fluorescence readout for one on one receptor-ligand binding for TNFR/TNF (32899 arbitrary units), the fluorescence readout (and thus, binding) was less for TNFR/EPO (−1027) and TNFR/IL-8 (−1677).

[2] = target: T2, erythropoietin receptor (EPOR, P19235) (Homo sapiens, UniProt P19235); test: cell-based ligand-lactamase fusion binding to cells expressing EPO receptor (CCF2 fluorescence); settings: for fluorescence readout, multiplexed pool of 12 receptors: EPOR in pool of 12 receptors; for fluorescence readout, multiplexed pool of 96 receptors: EPOR in pool of 96 receptors; for fluorescence readout, one on one receptor-ligand binding / fluorescence readout, multiplexed pool of 12 ligands / fluorescence readout, multiplexed pool of 96 ligands: EPOR; for fluorescence readout, one on one receptor-ligand binding: one to one, beta-lactamase reporter, CCF2 substrate
T2 construct: V5-His (from vector pcDNA3.1D/V5-His-TOPO); expressed in transfected cells
T2 sequence (P19235 25-508): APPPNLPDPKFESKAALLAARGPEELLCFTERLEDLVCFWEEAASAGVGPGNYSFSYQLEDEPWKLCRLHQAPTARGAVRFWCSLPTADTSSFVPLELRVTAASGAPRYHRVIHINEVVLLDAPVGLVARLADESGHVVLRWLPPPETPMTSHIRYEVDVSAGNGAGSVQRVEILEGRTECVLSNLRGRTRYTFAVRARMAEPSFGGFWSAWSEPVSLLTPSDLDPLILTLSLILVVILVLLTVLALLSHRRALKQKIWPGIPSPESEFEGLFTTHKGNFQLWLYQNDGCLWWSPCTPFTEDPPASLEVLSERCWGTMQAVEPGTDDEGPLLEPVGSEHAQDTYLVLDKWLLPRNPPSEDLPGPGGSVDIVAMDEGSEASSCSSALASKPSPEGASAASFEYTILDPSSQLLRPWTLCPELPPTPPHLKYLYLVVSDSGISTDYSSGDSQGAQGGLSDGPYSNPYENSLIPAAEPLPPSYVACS
Description: as §1
The EPO receptor and EPO, IL-8, and TNF ligand lactamase fusion proteins were expressed as described above. The EPO, IL-8, and TNF ligand lactamase fusions were contacted with the EPO receptor in duplicate experiments.
as §2, with “the EPO” for “the TNF”, “for EPO/EPOR (26398” for “for TNF/TNFR (32899”, “for EPO/IL-8R (−503)” for “for TNF/EPOR (−1113.5)”, “and EPO/TNFR (−1027).” for “and TNF/IL-8R (−814.5).”
as §3, with “the EPO” for “the TNF”, “for EPOR/EPO (26398” for “for TNFR/TNF (32899”, “for EPOR/IL-8 (−902)” for “for TNFR/EPO (−1027)”, “and EPOR/TNF (−1113.5).” for “and TNFR/IL-8 (−1677).”

[3] = target: T3, interleukin-8 receptor A (IL8R, P25024) (Homo sapiens, UniProt P25024); test: cell-based ligand-lactamase fusion binding to cells expressing IL-8 receptor (CCF2 fluorescence); settings: for fluorescence readout, multiplexed pool of 12 receptors: IL-8R in pool of 12 receptors; for fluorescence readout, multiplexed pool of 96 receptors: IL-8R in pool of 96 receptors; for fluorescence readout, one on one receptor-ligand binding / fluorescence readout, multiplexed pool of 12 ligands / fluorescence readout, multiplexed pool of 96 ligands: IL-8R; for fluorescence readout, one on one receptor-ligand binding: one to one, beta-lactamase reporter, CCF2 substrate
T3 construct: V5-His (from vector pcDNA3.1D/V5-His-TOPO); expressed in transfected cells
T3 sequence (P25024 1-350): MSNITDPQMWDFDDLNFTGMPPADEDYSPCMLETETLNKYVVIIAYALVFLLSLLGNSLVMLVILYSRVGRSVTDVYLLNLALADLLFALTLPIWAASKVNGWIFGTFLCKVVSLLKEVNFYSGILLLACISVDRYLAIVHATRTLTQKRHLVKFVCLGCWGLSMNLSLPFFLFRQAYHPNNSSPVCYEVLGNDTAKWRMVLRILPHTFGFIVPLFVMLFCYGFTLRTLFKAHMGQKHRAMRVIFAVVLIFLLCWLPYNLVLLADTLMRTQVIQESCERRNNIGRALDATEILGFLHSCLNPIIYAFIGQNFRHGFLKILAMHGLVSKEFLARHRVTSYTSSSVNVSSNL
Description: as §1
The IL-8 receptor and IL-8, EPO, and TNF ligand lactamase fusion proteins were expressed as described above. The IL-8, EPO, and TNF ligand lactamase fusions were contacted with the IL-8 receptor in duplicate experiments.
EPO, IL-8, and TNF receptors and ligands were expressed as described above. Known ligands, including the IL-8 ligand, were grouped to form a multiplexed pool of 12 ligands and a multiplexed pool of 96 ligands.
EPO, IL-8, and TNF receptors and ligands were expressed as described above. Known receptors, including the IL-8 receptor, were grouped to form a multiplexed pool of 12 receptors and a multiplexed pool of 96 receptors.

[4] = duplicate experiments, in words

fluorescence readout of the positive well (FIG. 6) ([2]; 96-well plate, cDNA expression library, multiplexing factor of 12, one out of 96 wells) | fluorescence readout, multiplexed pool of 12 receptors [2] [arbitrary units] | fluorescence readout, multiplexed pool of 96 receptors [2] [arbitrary units] | fluorescence readout, one on one receptor-ligand binding [2] [arbitrary units] | fluorescence readout, multiplexed pool of 12 ligands [2] [arbitrary units] | fluorescence readout, multiplexed pool of 96 ligands [2] [arbitrary units] | fluorescence readout of ligand binding with EPO receptor (FIG. 3) [2, 4] | fluorescence readout, multiplexed pool of 12 receptors [3] [arbitrary units] | fluorescence readout, multiplexed pool of 96 receptors [3] [arbitrary units] | fluorescence readout, one on one receptor-ligand binding [3] [arbitrary units] | fluorescence readout, multiplexed pool of 12 ligands [3] [arbitrary units] | fluorescence readout, multiplexed pool of 96 ligands [3] [arbitrary units] | fluorescence readout of ligand binding with IL-8 receptor (FIG. 3) [3, 4] | Substance | fluorescence readout, multiplexed pool of 12 receptors [1] [arbitrary units] | fluorescence readout, multiplexed pool of 96 receptors [1] [arbitrary units] | fluorescence readout, one on one receptor-ligand binding [1] [arbitrary units] | fluorescence readout, multiplexed pool of 12 ligands [1] [arbitrary units] | fluorescence readout, multiplexed pool of 96 ligands [1] [arbitrary units] | fluorescence readout of ligand binding with TNF receptor (FIG. 3) [1, 4]
13444 | 13570 | 1454 | 26398 | 13570 | 1454 | high fluorescence readout | −785 | −1334 | −503 | −785 | −1334 | – | erythropoietin [EPO] | −1598 | −1177 | −1027 | −1598 | −1177 | –
– | −1059 | −1448 | −902 | −1059 | -1450 | – | 3785 | −476 | 16941 | 3785 | −476 | high fluorescence readout | interleukin-8 [IL-8] | −1847 | −718 | −1677 | −147 | −718 | –
– | -1000 | −1634 | −1113.5 | −1005.5 | −1634 | – | −1275.5 | −381 | – | −1275.5 | −381 | – | tumor necrosis factor alpha [TNF] | 26974.5 | 6485.5 | 32899 | 26974.5 | 6485.5 | high fluorescence readout

Source: patent US20040115742A1, “Method to identify specific interaction between ligand and receptor” (priority 2002, published 2004)
